In publication PMC5449183, “Helical jackknives control the gates of the double-pore K^+ uptake system KtrAB” (eLife, 2017):

Tests used:
[1] = molecular target: T1, KtrA (RCK subunit of the KtrAB complex) (Vibrio alginolyticus, UniProt O87952); assay: ITC on detergent-solubilized KtrAB; […] Å cryo-EM map in the presence of ADP (EMD-3450); pulsed EPR; assay type: binding; set-up: full-length KtrAB, His10-KtrAB, detergent-solubilized complex (octameric KtrA ring); with KtrB
[2] = molecular target: T1, KtrA (RCK subunit of the KtrAB complex); assay: biochemical
[3] = molecular target: KtrB from Vibrio alginolyticus (untagged, of the His10-KtrAB complex) (Vibrio alginolyticus) (UniProt O87953); assay: cryo-EM structure; His10-KtrAB 5 mg/ml, detergent-solubilised (1.5 mM Cymal-6), 600 uM ADP, 70 mM NaCl, 30 mM KCl, 20 mM Tris-HCl pH 8.0; 20,500 particles, D2 symmetry, 6.6 A; model by flexible fitting of a homology model
[4] = molecular target: the molecule itself; assay: as above

T1 sequence (O87953 whole entry, one chain of several, further chain): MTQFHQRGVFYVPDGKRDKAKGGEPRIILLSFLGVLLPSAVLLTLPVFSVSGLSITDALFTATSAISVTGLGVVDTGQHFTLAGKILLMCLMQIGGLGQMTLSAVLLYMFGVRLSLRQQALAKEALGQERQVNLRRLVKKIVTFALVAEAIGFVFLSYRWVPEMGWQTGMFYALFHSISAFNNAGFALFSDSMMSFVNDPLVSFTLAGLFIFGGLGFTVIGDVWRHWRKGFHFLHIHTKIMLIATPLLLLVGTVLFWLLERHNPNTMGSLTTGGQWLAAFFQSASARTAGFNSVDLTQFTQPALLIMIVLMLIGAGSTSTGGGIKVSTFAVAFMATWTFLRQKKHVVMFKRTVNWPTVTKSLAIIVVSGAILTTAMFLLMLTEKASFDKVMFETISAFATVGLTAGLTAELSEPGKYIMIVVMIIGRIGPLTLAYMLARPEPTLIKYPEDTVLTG

## Nc1ncnc2c1ncn2[C@@H]1O[C@H](COP(=O)(O)OP(=O)(O)O)[C@@H](O)[C@H]1O [ADP]
[1]
  Kd: 3 µM

## Nc1ncnc2c1ncn2[C@@H]1O[C@H](COP(=O)(O)OP(=O)(O)OP(=O)(O)O)[C@@H](O)[C@H]1O [ATP]
[2]
  Kd: 2 µM

## KtrB from Vibrio alginolyticus (untagged, of the His10-KtrAB complex) (from UniProt O87953 1-455) (natural protein)
[3]
  stoichiometry N: 2

B1: KtrA from Vibrio alginolyticus (His10-KtrA of the His10-KtrAB complex) (natural protein, UniProt O87952 1-220, looked up)
chain: MKTGDKQFAVIGLGRFGLAVCKELQDSGSQVLAVDINEDRVKEAAGFVSQAIVANCTHEETVAELKLDDYDMVMIAIGADVNASILATLIAKEAGVKSVWVKANDRFQARVLQKIGADHIIMPERDMGIRVARKMLDKRVLEFHPLGSGLAMTEFVVGSRLMGKTLSDLALCKVEGVQVLGYKRGPEIIKAPDMSTTLEIGDLIIVVGPQDKLANKLKSL
notes: KtrA, cytoplasmic RCK subunit of the K+ uptake system KtrAB, Vibrio alginolyticus; gene amplified from genomic DNA; Forms an octameric ring (eight chains) in the complex KtrB2A8B2; The N-terminal end of the tag is read from the label His10-KtrAB; ADP (600 uM) was present in the cryo-EM sample; also called VaKtrA; RCK subunit; source: E. coli LB2003, co-expressed with KtrB from pBAD18 …
[4]
  stoichiometry N: 8
